In patent US9624170B2, “4-(piperrazin-1-yl)-pyrrolidin-2-one compounds as monoacylglycerol lipase (MAGL) inhibitors” (TAKEDA PHARMACEUTICAL COMPANY LIMITED, priority 2013, dated 2017):

molecular target: T1, human MAGL (His-hMAGL) (Homo sapiens, UniProt Q99685); test: Measurement of MAGL inhibitory activity by absorbance; assay type: biochemical; conditions: 10 μM test compound; substrate p-nitrophenyl acetate, absorbance at 405 nm
T1 construct: made in house; host or cells: Escherichia coli BL21(DE3)
T1 sequence (Q99685 1-303): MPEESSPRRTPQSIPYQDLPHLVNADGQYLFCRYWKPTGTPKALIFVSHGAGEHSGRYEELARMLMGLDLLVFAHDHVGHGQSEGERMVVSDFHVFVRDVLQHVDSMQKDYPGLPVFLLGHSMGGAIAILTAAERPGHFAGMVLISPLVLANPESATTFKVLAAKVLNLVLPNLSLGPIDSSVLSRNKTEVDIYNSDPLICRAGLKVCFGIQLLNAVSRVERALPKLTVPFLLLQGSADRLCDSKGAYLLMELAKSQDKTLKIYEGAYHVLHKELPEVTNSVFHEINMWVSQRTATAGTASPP
Description: (1) Cloning of Human MGLL Encoding MAGL Protein and Construction of Expression Plasmid
Human MGLL cDNA was obtained by PCR using human ORF Clone (DNAForm; Clone ID: 100004585) as a template. For PCR, two kinds of primers: […]
The obtained PCR product was digested with Bam HI and Not I (Takara Bio Inc.), inserted into the Bam HI/Not I site of pET21HH(V) (pET21a (Novagen) inserted with His x6 and TEV Protease recognition sequence) by using Ligation High (Toyobo Co., Ltd.), and introduced into ECOS™ JM109 (Nippon Gene Co., Ltd.), whereby expression plasmid pET21HH(V)/His-hMGLLv2 for Escherichia coli was constructed. (2) Preparation of Recombinant Polyhistidine Tagged Human MAGL Protein
Recombinant His-hMAGL protein was prepared by transforming ECOS™ Competent E. coli BL21(DE3) (Nippon Gene Co., Ltd.) with the pET21HH(V)/His-hMGLLv2 plasmid prepared above. Escherichia coli obtained by transformation was inoculated to 10 mL of LB medium (1% peptone, 0.5% yeast extract, 0.5% sodium chloride, 0.01% ampicillin), and cultured at 30° C. for 16 hr. […] When the turbidity of the culture medium reached about 500 Klett unit, the culture temperature was lowered to 16° C., isopropyl-β-D-thiogalactopyranoside (IPTG) was added to a final concentration of 1 mM, and the mixture was further cultured for 19 hr. After the completion of culture, the culture medium was centrifuged (4° C., 6,000 rpm, 10 min) to give His-hMAGL expression Escherichia coli. Then, His-hMAGL expression Escherichia coli was suspended in 50 mM Tris-HCl (pH 8.0, 100 ml) containing 1% Triton X-100, 20 mM imidazole, 3 mM DTT, 5 U/mL Benzonase (Merck) and 150 mM NaCl, sufficiently cooled, and subjected to sonication at […]=60%, 15 sec/ON, 30 sec/OFF for 3 min using ¾″ solid type crushed horn of BRANSON Digital Sonifier 450 (Central Scientific Commerce, Inc.). Furthermore, the homogenate was centrifuged (4° C., 15,000 rpm, 15 min) and the supernatant was obtained. As the purification apparatus, AKTA explorer 10s (GE Healthcare Japan Corporation) was used at 4° C. To the obtained supernatant was added 5M NaCl to the final salt concentration of 0.3 M, and the mixture was flown through and adsorbed to 5 mL of Ni-NTA Superflow Cartridges (QIAGEN) equilibrated in advance with buffer A (50 mM Tris-HCl (pH 8.0) containing 0.05% TritonX-100, 1 mM DTT, 300 mM NaCl). The column was sufficiently washed with buffer A containing 20 mM imidazole and His-hMAGL was eluted with buffer A containing imidazole at a final concentration of 250 mM. The eluate was further subjected to gel filtration using HiLoad 26/600 Superdex 200 pg (GE Healthcare Japan Corporation) equilibrated with 50 mM Tris-HCl pH 8.0 containing 10% glycerol, 0.05% TritonX-100, 1 mM DTT, 150 mM NaCl. The eluted fraction was concentrated by Amicon Ultra-15 10K (Merck Millipore) to give purified His-hMAGL protein. The protein concentration was measured by BCA Protein Assay Kit (Thermo Fisher Scientific) using BSA as the standard.
(3) Measurement of MAGL Inhibitory Activity
His-hMAGL obtained above was diluted with enzyme reaction buffer (10 mM Tris-HCl, pH 7.5, 1 mM EDTA, 0.1 (w/v) % Triton X-100) to a concentration of 60 ng/mL. […] Thereafter, to each well was added 750 μM p-nitrophenyl acetate (Wako Pure Chemical Industries, Ltd.) by 5 μL, and the absorbance at 405 nm was measured every 2 minutes up to 10 minutes by EnVision (PerkinElmer). The amount of change was obtained by subtracting the absorbance measured immediately after the start of the reaction from the absorbance measured 10 min after the start of the reaction.
MAGL inhibitory rate (%) was calculated according to the following calculation formula. (1−(absorbance change amount of test compound addition group−absorbance change amount of enzyme addition-free group)[…](absorbance change amount of test compound addition-free group−absorbance change amount of enzyme addition-free group))×100

Row | Structure (SMILES) | inhibition at 10 µM
1 | O=C(c1nccs1)N1CCN(C2CC(=O)N(c3ccc4c(ccn4-c4ncc(C(F)(F)F)cn4)c3)C2)CC1 (stereo not shown) [Example 52, 4-(4-(1,3-Thiazol-2-ylcarbonyl)piperazin-1-yl)-1-(1-(5-(trifluoromethyl)pyrimidin-2-yl)-1H-indol-5-yl)pyrrolidin-2-one] | 97%
2 | COc1ccc(Oc2ccc(N3CC(N4CCN(C(=O)c5nccs5)CC4)CC3=O)cc2)cc1 (stereo not shown) [Example 22, 1-(4-(4-methoxyphenoxy)phenyl)-4-(4-(1,3-thiazol-2-ylcarbonyl)piperazin-1-yl)pyrrolidin-2-one] | 97%
3 | COc1cccc(Oc2ccc(N3CC(N4CCN(C(=O)c5nccs5)CC4)CC3=O)cc2)c1 (stereo not shown) [Example 44, 1-(4-(3-methoxyphenoxy)phenyl)-4-(4-(1,3-thiazol-2-ylcarbonyl)piperazin-1-yl)pyrrolidin-2-one] | 97%
4 | O=C(c1cscn1)N1CCN(C2CC(=O)N(c3ccc(Oc4ccccc4)cc3)C2)CC1 (stereo not shown) [Example 6, 1-(4-phenoxyphenyl)-4-(4-(1,3-thiazol-4-ylcarbonyl)piperazin-1-yl)pyrrolidin-2-one] | 93%
5 | O=C(c1cocn1)N1CCN(C2CC(=O)N(c3ccc(Oc4ccccc4)cc3)C2)CC1 (stereo not shown) [Example 36, 4-(4-(1,3-oxazol-4-ylcarbonyl)piperazin-1-yl)-1-(4-phenoxyphenyl)pyrrolidin-2-one] | 95%
6 | O=C(c1nccs1)N1CCN(C2CC(=O)N(c3ccc(Oc4ccccc4)cn3)C2)CC1 (stereo not shown) [Example 18, 1-(5-phenoxypyridin-2-yl)-4-(4-(1,3-thiazol-2-ylcarbonyl)piperazin-1-yl)pyrrolidin-2-one] | 96%
7 | O=C(c1nccs1)N1CCN(C2CC(=O)N(c3cnc4c(ccn4-c4ccc(F)cc4)c3)C2)CC1 (stereo not shown) [Example 51, 1-(1-(4-fluorophenyl)-1H-pyrrolo[2,3-b]pyridin-5-yl)-4-(4-(1,3-thiazol-2-ylcarbonyl)piperazin-1-yl)pyrrolidin-2-one] | 97%

Further lines, results first:

Row | inhibition at 10 µM | Structure (SMILES)
8 | 100% | O=C(c1nccs1)N1CCN([C@@H]2CC(=O)N(c3ccc4c(ccn4-c4ncc(C(F)(F)F)cn4)c3)C2)CC1 [Example 80, (4R)-4-(4-(1,3-Thiazol-2-ylcarbonyl)piperazin-1-yl)-1-(1-(5-(trifluoromethyl)pyrimidin-2-yl)-1H-indol-5-yl)pyrrolidin-2-one]
9 | 96% | O=C(c1nccs1)N1CCN(C2CC(=O)N(c3ccc4c(ccn4-c4ncc(F)cn4)c3)C2)CC1 (stereo not shown) [Example 83, 1-(1-(5-fluoropyrirnidin-2-yl)-1H-indol-5-yl)-4-(4-(1,3-thiazol-2-ylcarbonyl)piperazin-1-yl)pyrrolidin-2-one]
10 | 97% | O=C(c1nccs1)N1CCN(C2CC(=O)N(c3ccccc3OCc3ccccc3)C2)CC1 (stereo not shown) [Example 58, 1-(2-(benzyloxy)phenyl)-4-(4-(1,3-thiazol-2-ylcarbonyl)piperazin-1-yl)pyrrolidin-2-one]
11 | 99% | O=C(c1nccs1)N1CCN(C2CC(=O)N(c3ccc4c(cnn4-c4ccc(Cl)cn4)c3)C2)CC1 (stereo not shown) [Example 86, 1-(1-(5-chloropyridin-2-yl)-1H-indazol-5-yl)-4-(4-(1,3-thiazol-2-ylcarbonyl)piperazin-1-yl)pyrrolidin-2-one]
12 | 91% | O=C(c1nccs1)N1CCN(C2CC(=O)N(c3cccc(-c4ccncc4)c3)C2)CC1 (stereo not shown) [Example 66, 1-(3-(pyridin-4-yl)phenyl)-4-(4-(1,3-thiazol-2-ylcarbonyl)piperazin-1-yl)pyrrolidin-2-one]
13 | 97% | O=C(c1nccs1)N1CCN(C2CC(=O)N(c3ccc4c(cnn4-c4ccc(F)cn4)c3)C2)CC1 (stereo not shown) [Example 81, 1-(1-(5-fluoropyridin-2-yl)-1H-indazol-5-yl)-4-(4-(1,3-thiazol-2-ylcarbonyl)piperazin-1-yl)pyrrolidin-2-one]
14 | 96% | O=C(c1nccs1)N1CCN(C2CC(=O)N(c3ccc4c(ccn4-c4ncc(Cl)cn4)c3)C2)CC1 (stereo not shown) [Example 84, 1-(1-(5-chloropyrirnidin-2-yl)-1H-indol-5-yl)-4-(4-(1,3-thiazol-2-ylcarbonyl)piperazin-1-yl)pyrrolidin-2-one]
15 | 95% | O=C(c1nccs1)N1CCN(C2CC(=O)N(c3cccc(Oc4ccc(F)cc4)c3)C2)CC1 (stereo not shown) [Example 79, 1-(3-(4-Fluorophenoxy)phenyl)-4-(4-(1,3-thiazol-2-ylcarbonyl)piperazin-1-yl)pyrrolidin-2-one]

molecular target: T1, human MAGL (His-hMAGL); test: Measurement of MAGL inhibitory activity by mass spectrometry; assay type: biochemical; conditions: 10 μM test compound; substrate 2-arachidonylglycerol, arachidonic acid by RapidFire-mass spectrometry
Summary of the method: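 His-tagged human MAGL was reacted with 150 μM 2-arachidonylglycerol substrate (stock, added by 5 μL) for 10 min at room temperature, then stopped with formic acid. Arachidonic acid product was quantified by RapidFire–triple-quadrupole MS in negative SRM mode, corrected by arachidonic acid-d8, and converted to percent inhibition.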

Row | inhibition at 10 µM | Structure (SMILES)
16 | 97% | O=C(c1nccs1)N1CCN([C@@H]2CC(=O)N(c3ccc4c(ccn4-c4ncc(C(F)(F)F)cn4)c3)C2)CC1 [Example 80, (4R)-4-(4-(1,3-Thiazol-2-ylcarbonyl)piperazin-1-yl)-1-(1-(5-(trifluoromethyl)pyrimidin-2-yl)-1H-indol-5-yl)pyrrolidin-2-one]

tested on: Gfap, IL-1β, IL-6 gene expression in hippocampus; test: Measurement of gene expression in hippocampus of kainic acid intraventricular administration rat; assay type: in vivo; conditions: SD rats, 30 mg/kg by gavage, hippocampus 24 hr after administration

Row | Structure (SMILES) | effect to decrease expression of a gene of glial fibrillary acidic protein (GFAP) (FIG. 3) | effect to decrease expression of a gene of interleukin 1β (IL-1β) (FIG. 4) | effect to decrease expression of a gene of interleukin 6 (IL-6) (FIG. 5)
17 | O=C(c1nccs1)N1CCN([C@@H]2CC(=O)N(c3ccc4c(ccn4-c4ncc(C(F)(F)F)cn4)c3)C2)CC1 [compound 1, (4R)-4-(4-(1,3-thiazol-2-ylcarbonyl)piperazin-1-yl)-1-(1-(5-(trifluoromethyl)pyrimidin-2-yl)-1H-indol-5-yl)pyrrolidin-2-one] | decrease expression | decrease expression | decrease expression
